Source: patent publication US11987586B1 (TAKEDA PHARMACEUTICAL COMPANY LIMITED, priority 2022, dated 2024)

target: T1, human OX2 receptor (Homo sapiens, UniProt O43614); experiment: Measurement of orexin type 2 receptor agonist activity (calcium fluorescence, Fluo-4, FDSS); format: cell-based; settings: 3 uM test compound; CHO cells expressing human OX2 receptor; DMSO = 0%, 10 nM orexin A (human) = 100%
T1 construct: expressed in transfected cells
T1 sequence (O43614 1-444): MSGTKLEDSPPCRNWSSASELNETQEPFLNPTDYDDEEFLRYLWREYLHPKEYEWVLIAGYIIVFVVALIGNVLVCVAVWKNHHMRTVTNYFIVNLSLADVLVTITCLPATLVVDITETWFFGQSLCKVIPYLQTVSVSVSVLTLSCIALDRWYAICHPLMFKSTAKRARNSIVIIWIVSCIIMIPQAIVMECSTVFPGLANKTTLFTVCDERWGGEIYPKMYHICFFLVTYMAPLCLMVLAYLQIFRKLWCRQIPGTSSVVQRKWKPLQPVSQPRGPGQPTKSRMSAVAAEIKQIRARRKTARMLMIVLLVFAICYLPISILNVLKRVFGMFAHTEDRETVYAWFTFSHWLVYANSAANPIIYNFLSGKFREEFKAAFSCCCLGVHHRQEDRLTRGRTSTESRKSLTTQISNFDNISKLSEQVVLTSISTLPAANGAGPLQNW
Method in brief: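 CHO-K1 cells stably expressing human OX2 receptor (residues 1-444) were loaded with Fluo-4 AM plus probenecid. Calcium fluorescence after compound addition was recorded for 1 min 40 s. Activity (%) was scaled between DMSO (0%) and 10 nM orexin A final (100%).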

OX2R agonist activity (3 uM, %) | Structure (SMILES)
102% | CCOc1cc(-c2c(F)cc(F)cc2F)c2c(N3CC[C@H]4N(C[C@@H](NS(=O)(=O)C5CC5)C4(F)F)C3=O)noc2c1 [Example 249, N-{(4aR,6R)-2-[6-ethoxy-4-(2,4,6-trifluorophenyl)-1,2-benzoxazol-3-yl]-5,5-difluoro-1-oxooctahydropyrrolo[1,2-c]pyrimidin-6-yl}cyclopropanesulfonamide]
99% | COc1cc(-c2c(F)cc(F)cc2F)c2c(-n3cc4n(c3=O)C[C@@H](NS(C)(=O)=O)C4(F)F)noc2n1 [Example 250, N-{(6R)-7,7-difluoro-2-[6-methoxy-4-(2,4,6-trifluorophenyl)[1,2]oxazolo[5,4-b]pyridin-3-yl]-3-oxo-2,5,6,7-tetrahydro-3H-pyrrolo[1,2-c]imidazol-6-yl}methanesulfonamide]
109% | CS(=O)(=O)N[C@H]1C[C@H]2CCN(c3noc4cc(C(F)(F)F)cc(-c5c(F)cccc5F)c34)C(=O)N2C1 [Example 251, N-{(4aR,6S)-2-[4-(2,6-difluorophenyl)-6-(trifluoromethyl)-1,2-benzoxazol-3-yl]-1-oxooctahydropyrrolo[1,2-c]pyrimidin-6-yl}methanesulfonamide]
96% | CS(=O)(=O)N[C@@H]1CN2C(=O)N(c3noc4cc(F)c(F)c(-c5c(F)cccc5F)c34)CC[C@@H]2C1(F)F [Example 252, N-{(4aR,6R)-2-[4-(2,6-difluorophenyl)-5,6-difluoro-1,2-benzoxazol-3-yl]-5,5-difluoro-1-oxooctahydropyrrolo[1,2-c]pyrimidin-6-yl}methanesulfonamide]
101% | CS(=O)(=O)N[C@H]1C[C@H]2CCN(c3noc4cc(F)cc(-c5c(F)cccc5F)c34)C(=O)N2C1 [Example 253, N-{(4aR,6S)-2-[4-(2,6-difluorophenyl)-6-fluoro-1,2-benzoxazol-3-yl]-1-oxooctahydropyrrolo[1,2-c]pyrimidin-6-yl}methanesulfonamide]
95% | CCS(=O)(=O)N[C@@H]1CN2C(=O)N(c3noc4cc(F)cc(-c5ncc(F)cc5F)c34)CC[C@@H]2C1(F)F [Example 254, N-{(4aR,6R)-2-[4-(3,5-difluoropyridin-2-yl)-6-fluoro-1,2-benzoxazol-3-yl]-5,5-difluoro-1-oxooctahydropyrrolo[1,2-c]pyrimidin-6-yl}ethanesulfonamide]
107% | CCS(=O)(=O)N[C@@H]1CN2C(=O)N(c3noc4cc(OC(F)F)cc(-c5c(F)cccc5F)c34)CC[C@@H]2C1(F)F [Example 255, N-{(4aR,6R)-2-[6-(difluoromethoxy)-4-(2,6-difluorophenyl)-1,2-benzoxazol-3-yl]-5,5-difluoro-1-oxooctahydropyrrolo[1,2-c]pyrimidin-6-yl}ethanesulfonamide]
103% | O=C1N(c2noc3cc(OC(F)F)cc(-c4c(F)cccc4F)c23)CC[C@H]2N1C[C@@H](NS(=O)(=O)C1CC1)C2(F)F [Example 256, N-{(4aR,6R)-2-[6-(difluoromethoxy)-4-(2,6-difluorophenyl)-1,2-benzoxazol-3-yl]-5,5-difluoro-1-oxooctahydropyrrolo[1,2-c]pyrimidin-6-yl}cyclopropanesulfonamide]
110% | CNS(=O)(=O)N[C@@H]1Cn2c(cn(-c3noc4cc(C)nc(-c5c(F)cc(F)cc5F)c34)c2=O)C1(F)F [Example 257, N-{(6R)-7,7-difluoro-2-[6-methyl-4-(2,4,6-trifluorophenyl)[1,2]oxazolo[4,5-c]pyridin-3-yl]-3-oxo-2,5,6,7-tetrahydro-3H-pyrrolo[1,2-c]imidazol-6-yl}-N′-methylsulfuric diamide]
100% | Cc1cc(-c2c(F)cc(F)cc2F)c2c(N3CC[C@H]4N(C[C@@H](NS(C)(=O)=O)C4(F)F)C3=O)noc2n1 [Example 258, N-{(4aR,6R)-5,5-difluoro-2-[6-methyl-4-(2,4,6-trifluorophenyl)[1,2]oxazolo[5,4-b]pyridin-3-yl]-1-oxooctahydropyrrolo[1,2-c]pyrimidin-6-yl}methanesulfonamide]
96% | CS(=O)(=O)N[C@@H]1CN2C(=O)N(c3noc4cc(Cl)cc(-c5c(F)cccc5F)c34)CC[C@@H]2C1(F)F [Example 259, N-{(4aR,6R)-2-[6-chloro-4-(2,6-difluorophenyl)-1,2-benzoxazol-3-yl]-5,5-difluoro-1-oxooctahydropyrrolo[1,2-c]pyrimidin-6-yl}methanesulfonamide]
108% | CCS(=O)(=O)N[C@@H]1CN2C(=O)N(c3noc4cccc(-c5c(F)cc(F)cc5F)c34)CC[C@@H]2C1(F)F [Example 260, N-{(4aR,6R)-5,5-difluoro-1-oxo-2-[4-(2,4,6-trifluorophenyl)-1,2-benzoxazol-3-yl]octahydropyrrolo[1,2-c]pyrimidin-6-yl}ethanesulfonamide]
105% | CCS(=O)(=O)N[C@@H]1CN2C(=O)N(c3noc4cc(F)cc(-c5c(F)cc(F)cc5F)c34)CC[C@@H]2C1(F)F [Example 261]
114% | CCS(=O)(=O)N[C@@H]1CN2C(=O)N(c3noc4cccc(-c5c(F)cccc5F)c34)CC[C@@H]2C1(F)F [Example 262]
114% | CCS(=O)(=O)N[C@@H]1CN2C(=O)N(c3noc4cc(F)cc(-c5c(F)cccc5F)c34)CC[C@@H]2C1(F)F [Example 263, N-{(4aR,6R)-2-[4-(2,6-difluorophenyl)-6-fluoro-1,2-benzoxazol-3-yl]-5,5-difluoro-1-oxooctahydropyrrolo[1,2-c]pyrimidin-6-yl}ethanesulfonamide]
107% | CN(C)S(=O)(=O)N[C@@H]1Cn2c(cn(-c3noc4ccc(F)c(-c5c(F)cc(F)cc5F)c34)c2=O)C1(F)F [Example 264, N′-{(6R)-7,7-difluoro-2-[5-fluoro-4-(2,4,6-trifluorophenyl)-1,2-benzoxazol-3-yl]-3-oxo-2,5,6,7-tetrahydro-3H-pyrrolo[1,2-c]imidazol-6-yl}-N,N-dimethylsulfuric diamide]
103% | O=C1N(c2noc3cc(F)cc(-c4c(F)cc(F)cc4F)c23)C[C@H]2N1C[C@@H](NS(=O)(=O)CF)C2(F)F [Example 266]
101% | O=c1n(-c2noc3cc(C(F)F)cc(-c4c(F)cc(F)cc4F)c23)cc2n1C[C@@H](NS(=O)(=O)CF)C2(F)F [Example 267, N-{(6R)-2-[6-(difluoromethyl)-4-(2,4,6-trifluorophenyl)-1,2-benzoxazol-3-yl]-7,7-difluoro-3-oxo-2,5,6,7-tetrahydro-3H-pyrrolo[1,2-c]imidazol-6-yl}-1-fluoromethanesulfonamide]
104% | Cc1cc2onc(N3CC[C@H]4N(C[C@@H](NS(=O)(=O)C5CC5)C4(F)F)C3=O)c2c(-c2c(F)cccc2F)n1 [Example 268, N-{(4aR,6R)-2-[4-(2,6-difluorophenyl)-6-methyl[1,2]oxazolo[4,5-c]pyridin-3-yl]-5,5-difluoro-1-oxooctahydropyrrolo[1,2-c]pyrimidin-6-yl}cyclopropanesulfonamide]
104% | CCS(=O)(=O)N[C@@H]1CN2C(=O)N(c3noc4ccc(F)c(-c5c(F)cccc5F)c34)CC[C@@H]2C1(F)F [Example 269, N-{(4aR,6R)-2-[4-(2,6-difluorophenyl)-5-fluoro-1,2-benzoxazol-3-yl]-5,5-difluoro-1-oxooctahydropyrrolo[1,2-c]pyrimidin-6-yl}ethanesulfonamide]
109% | O=C1N(c2noc3ccc(F)c(-c4c(F)cccc4F)c23)CC[C@H]2N1C[C@@H](NS(=O)(=O)CF)C2(F)F [Example 270, N-{(4aR,6R)-2-[4-(2,6-difluorophenyl)-5-fluoro-1,2-benzoxazol-3-yl]-5,5-difluoro-1-oxooctahydropyrrolo[1,2-c]pyrimidin-6-yl}-1-fluoromethanesulfonamide]
107% | O=C1N(c2noc3cc(F)cc(-c4c(F)cccc4F)c23)CC[C@H]2N1C[C@@H](NS(=O)(=O)C1CC1)C2(F)F [Example 271, N-{(4aR,6R)-2-[4-(2,6-difluorophenyl)-6-fluoro-1,2-benzoxazol-3-yl]-5,5-difluoro-1-oxooctahydropyrrolo[1,2-c]pyrimidin-6-yl}cyclopropanesulfonamide]
109% | O=c1n(-c2noc3ccc(F)c(-c4c(F)cc(F)cc4F)c23)cc2n1C[C@@H](NS(=O)(=O)C1CC1)C2(F)F [Example 272, N-{(6R)-7,7-difluoro-2-[5-fluoro-4-(2,4,6-trifluorophenyl)-1,2-benzoxazol-3-yl]-3-oxo-2,5,6,7-tetrahydro-3H-pyrrolo[1,2-c]imidazol-6-yl}cyclopropanesulfonamide]
103% | CS(=O)(=O)N[C@@H]1CN2C(=O)N(c3noc4cccc(-c5ccccc5F)c34)CC[C@@H]2C1(F)F [Example 273, N-{(4aR,6R)-5,5-difluoro-2-[4-(2-fluorophenyl)-1,2-benzoxazol-3-yl]-1-oxooctahydropyrrolo[1,2-c]pyrimidin-6-yl}methanesulfonamide]
